In ChEMBL document CHEMBL2157932, “Synthesis and pharmacological evaluation of carbamic acid 1-phenyl-3-(4-phenyl-piperazine-1-yl)-propyl ester derivatives as new analgesic agents” (Bioorg Med Chem Lett, 2012):
The source made the active and inactive calls. No cut-off for these calls is given here.

Legend:
[1] = Oral bioavailability in rat at 15 mg/kg; type: ADME, organism-based; details: in vivo
Mus musculus [2] = test: Analgesic activity in po dosed mouse assessed as inhibition of acetic acid-induced writhing response administered 0.5 to 1 hr before acetic acid challenge; type: functional
[3] = target: 5-hydroxytryptamine receptor 2A (Homo sapiens, UniProt P28223); test: Antagonist activity at 5HT2A receptor; type: functional
Mus musculus [4] = test: Neurotoxicity in mouse assessed as myoreflexation or sedation at 139 mg/kg, po by rotarod test; type: toxicity, organism-based; set-up: dose 139 mg/kg, route oral; details: in vivo
[5] = Half life in rat liver microsomes by LC/MS/MS; type: ADME, Microsome
Mus musculus [6] = test: Analgesic activity in ip dosed mouse assessed as inhibition of acetic acid-induced writhing response administered 0.5 to 1 hr before acetic acid challenge; type: functional
[7] = Half life in human liver microsomes by LC/MS/MS; type: ADME, Microsome
[8] = AUCall in rat at 15 mg/kg, iv; type: ADME, organism-based; set-up: dose 15 mg/kg, route intravenous; details: plasma
[9] = Tmax in rat at 15 mg/kg, po; type: ADME, organism-based; set-up: dose 15 mg/kg, route oral; details: in vivo
[10] = AUCall in rat at 15 mg/kg, po; type: ADME, organism-based; set-up: dose 15 mg/kg, route oral; details: plasma
[11] = Cmax in rat at 15 mg/kg, po; type: ADME, organism-based; set-up: dose 15 mg/kg, route oral; details: in vivo
Mus musculus [12] = test: Inhibition of DOI-induced head twitches in mouse at 0.3 mg/kg, ip; type: functional; details: route intraperitoneal
[13] = Clearance in rat at 15 mg/kg, iv; type: ADME, organism-based; set-up: dose 15 mg/kg, route intravenous; details: in vivo
[14] = target: 5-hydroxytryptamine receptor 2A (Rattus norvegicus, UniProt P14842); test: Displacement of [3H]-ketanserin from 5HT2A receptor in rat cortical membrane; type: cell membranes
Rattus norvegicus = test: Antiinflammatory activity in po dosed rat persistent inflammatory pain model assessed as inhibition of carrageenan-induced mechanical hyperalgesia; type: functional
[15] = target: Sodium-dependent noradrenaline transporter (Homo sapiens) (UniProt P23975); test: Binding affinity to norepinephrine transporter at 10 uM
[16] = Cmax in rat at 15 mg/kg, iv; type: ADME, organism-based; set-up: dose 15 mg/kg, route intravenous; details: in vivo
Mus musculus [17] = test: Neurotoxicity in mouse assessed as myoreflexation or sedation at 52.7 mg/kg, ip by rotarod test; type: toxicity, organism-based; set-up: dose 52.7 mg/kg, route intraperitoneal; details: in vivo
Mus musculus [18] = test: Inhibition of DOI-induced head twitches in ip dosed mouse; type: functional, organism-based
[19] = Half life in rat at 15 mg/kg, po; type: ADME, organism-based; set-up: dose 15 mg/kg, route oral; details: in vivo
[20] = Binding affinity to prostaglandin synthetase at 10 uM
Mus musculus [21] = test: Inhibition of DOI-induced head twitches in mouse at 3 mg/kg, ip; type: functional; details: route intraperitoneal
[22] = Half life in rat at 15 mg/kg, iv; type: ADME, organism-based; set-up: dose 15 mg/kg, route intravenous; details: in vivo
Mus musculus [23] = test: Inhibition of DOI-induced head twitches in mouse at 1 mg/kg, ip; type: functional; details: route intraperitoneal
Mus musculus [24] = test: Antinociceptive activity in po dosed mouse by hot plate test; type: functional
[25] = Volume of distribution at steady state in rat at 15 mg/kg, iv; type: ADME, organism-based; set-up: dose 15 mg/kg, route intravenous; details: in vivo, read-out: Vdss
Mus musculus [26] = test: Inhibition of 5-hydroxytryptophan-induced head twitches in mouse at 3 mg/kg, ip; type: functional; details: route intraperitoneal
[27] = Binding affinity to opioid receptor at 10 uM
Mus musculus [28] = species on record: Mus musculus; test: Antinociceptive activity in mouse by hot plate test in presence of naloxone; type: functional, organism-based
[29] = target: 5-hydroxytryptamine receptor 2B (Homo sapiens, UniProt P41595); test: Binding affinity to 5HT2B receptor
Mus musculus [30] = test: Inhibition of 5-hydroxytryptophan-induced head twitches in mouse at 10 mg/kg, ip; type: functional; details: route intraperitoneal
[31] = target: Sigma non-opioid intracellular receptor 1 (Homo sapiens, UniProt Q99720); test: Binding affinity to Sigma1
[32] = target: T1, 5-hydroxytryptamine receptor 1A (Rattus norvegicus, UniProt P19327); test: Displacement of [3H]-8-OH-DPAT from 5HT1A receptor in rat hippocampus; type: tissue-based
T1 sequence (P19327 whole entry): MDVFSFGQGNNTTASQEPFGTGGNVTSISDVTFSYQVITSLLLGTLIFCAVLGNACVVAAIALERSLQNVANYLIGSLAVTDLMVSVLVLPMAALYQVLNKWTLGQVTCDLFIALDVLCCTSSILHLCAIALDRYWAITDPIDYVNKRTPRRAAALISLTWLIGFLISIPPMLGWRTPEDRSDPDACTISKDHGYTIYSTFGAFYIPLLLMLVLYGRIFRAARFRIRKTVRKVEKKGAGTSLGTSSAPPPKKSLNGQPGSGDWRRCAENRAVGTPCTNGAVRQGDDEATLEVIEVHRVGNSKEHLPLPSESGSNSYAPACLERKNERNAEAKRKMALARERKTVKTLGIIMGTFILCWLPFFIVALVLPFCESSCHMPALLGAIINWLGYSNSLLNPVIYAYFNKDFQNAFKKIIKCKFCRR

Chain of 5-hydroxytryptamine receptor 2B (P41595 whole entry): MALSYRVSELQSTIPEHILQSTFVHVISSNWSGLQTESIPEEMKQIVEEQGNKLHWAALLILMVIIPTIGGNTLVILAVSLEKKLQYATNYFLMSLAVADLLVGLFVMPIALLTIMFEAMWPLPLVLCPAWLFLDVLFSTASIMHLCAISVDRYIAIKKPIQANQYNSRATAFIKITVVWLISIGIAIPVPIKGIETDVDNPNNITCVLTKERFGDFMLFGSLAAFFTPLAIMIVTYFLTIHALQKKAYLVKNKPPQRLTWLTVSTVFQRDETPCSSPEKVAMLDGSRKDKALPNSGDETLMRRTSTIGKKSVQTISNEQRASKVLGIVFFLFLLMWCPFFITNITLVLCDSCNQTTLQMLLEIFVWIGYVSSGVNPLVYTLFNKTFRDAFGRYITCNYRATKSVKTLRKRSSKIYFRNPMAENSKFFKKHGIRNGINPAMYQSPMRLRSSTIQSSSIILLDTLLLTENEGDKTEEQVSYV
Chain of Sigma non-opioid intracellular receptor 1 (Q99720 whole entry): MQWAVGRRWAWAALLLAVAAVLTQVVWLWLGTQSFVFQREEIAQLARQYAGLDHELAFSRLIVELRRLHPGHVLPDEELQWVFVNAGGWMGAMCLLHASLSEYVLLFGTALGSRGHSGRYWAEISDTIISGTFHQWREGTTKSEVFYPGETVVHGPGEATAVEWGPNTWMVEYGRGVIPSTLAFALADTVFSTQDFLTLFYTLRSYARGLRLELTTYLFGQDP
Chain of 5-hydroxytryptamine receptor 2A (Homo sapiens, UniProt P28223) (P28223 whole entry): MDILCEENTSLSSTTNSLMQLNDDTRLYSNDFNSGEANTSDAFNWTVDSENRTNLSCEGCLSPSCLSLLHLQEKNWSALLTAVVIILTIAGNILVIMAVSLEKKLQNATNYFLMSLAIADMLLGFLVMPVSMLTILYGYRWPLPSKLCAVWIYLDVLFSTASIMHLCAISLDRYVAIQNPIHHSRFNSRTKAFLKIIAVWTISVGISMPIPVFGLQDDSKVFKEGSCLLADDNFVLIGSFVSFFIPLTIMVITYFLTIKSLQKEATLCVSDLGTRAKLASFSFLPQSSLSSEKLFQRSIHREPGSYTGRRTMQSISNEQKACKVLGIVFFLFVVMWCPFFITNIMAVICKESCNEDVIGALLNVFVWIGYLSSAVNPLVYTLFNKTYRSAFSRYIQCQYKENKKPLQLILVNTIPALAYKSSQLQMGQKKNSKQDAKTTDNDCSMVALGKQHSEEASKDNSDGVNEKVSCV
Chain of 5-hydroxytryptamine receptor 2A (Rattus norvegicus, UniProt P14842) (P14842 whole entry): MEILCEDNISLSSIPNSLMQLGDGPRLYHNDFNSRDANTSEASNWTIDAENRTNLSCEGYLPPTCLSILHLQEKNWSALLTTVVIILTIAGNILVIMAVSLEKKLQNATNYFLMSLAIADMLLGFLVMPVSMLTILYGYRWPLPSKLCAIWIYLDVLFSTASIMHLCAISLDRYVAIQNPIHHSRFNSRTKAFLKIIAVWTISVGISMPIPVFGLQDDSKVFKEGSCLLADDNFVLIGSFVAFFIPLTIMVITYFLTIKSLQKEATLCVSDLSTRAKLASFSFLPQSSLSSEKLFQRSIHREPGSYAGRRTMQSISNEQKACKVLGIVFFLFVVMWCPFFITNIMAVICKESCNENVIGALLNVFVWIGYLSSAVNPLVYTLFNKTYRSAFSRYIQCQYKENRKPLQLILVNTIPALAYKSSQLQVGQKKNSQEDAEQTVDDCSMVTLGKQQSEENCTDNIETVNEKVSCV
Chain of Sodium-dependent noradrenaline transporter (Homo sapiens) (P23975 whole entry): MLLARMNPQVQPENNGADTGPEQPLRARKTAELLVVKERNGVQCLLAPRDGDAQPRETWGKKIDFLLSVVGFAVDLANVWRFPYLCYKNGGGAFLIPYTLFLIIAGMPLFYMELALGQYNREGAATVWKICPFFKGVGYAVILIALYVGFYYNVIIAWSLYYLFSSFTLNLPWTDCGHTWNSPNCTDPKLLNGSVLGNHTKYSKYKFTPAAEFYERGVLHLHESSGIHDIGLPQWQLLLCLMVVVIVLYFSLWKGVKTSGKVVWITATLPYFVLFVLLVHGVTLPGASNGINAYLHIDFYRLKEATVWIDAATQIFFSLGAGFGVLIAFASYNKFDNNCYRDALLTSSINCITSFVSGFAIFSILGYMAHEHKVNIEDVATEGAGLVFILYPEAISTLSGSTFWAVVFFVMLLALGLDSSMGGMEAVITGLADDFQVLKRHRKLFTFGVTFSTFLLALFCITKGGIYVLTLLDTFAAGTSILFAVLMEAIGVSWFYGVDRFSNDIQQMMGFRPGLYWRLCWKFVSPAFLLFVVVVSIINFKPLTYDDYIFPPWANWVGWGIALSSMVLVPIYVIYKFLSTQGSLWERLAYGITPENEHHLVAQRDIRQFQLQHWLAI

COc1ccc(N2CCN(CC[C@@H](OC(N)=O)c3ccccc3)CC2)cc1
bioavailability [1]: 73.8%
ED50 (Mus musculus [2]): 2.65 mg/kg
IC50 [3]: 5.8 µM
Activity (Mus musculus [4]): Non-toxic
half-life [5]: 1.52 h
ED50 (Mus musculus [6]): 0.94 mg/kg
half-life [7]: 5.32 h
AUC [8]: 17800 ng·h/mL
Tmax [9]: 1.1 h
AUC [10]: 13200 ng·h/mL
Cmax [11]: 2200 ng/mL
inhibition in vivo at 0.3 mg/kg (Mus musculus [12]): 40%
clearance [13]: 14.1 mL/min/kg
IC50 [14]: 5.77 µM
Activity (Rattus norvegicus): Dose-dependent effect
ED50 (Rattus norvegicus): 0.68 mg/kg
inhibition [15]: inactive
Cmax [16]: 9950 ng/mL
Activity (Mus musculus [17]): Non-toxic
inhibition (Mus musculus [18]): Dose-dependent effect
half-life [19]: 2.6 h
inhibition [20]: inactive
inhibition in vivo at 3 mg/kg (Mus musculus [21]): 89.3%
half-life [22]: 1.8 h
inhibition in vivo at 1 mg/kg (Mus musculus [23]): 61.4%
ED50 (Mus musculus [24]): 2.86 mg/kg
Vd [25]: 1.77 L/kg
inhibition in vivo at 3 mg/kg (Mus musculus [26]): 46.2%
inhibition [27]: inactive
Activity (Mus musculus [28]): Active
Ki [29]: 0.164 µM
inhibition in vivo at 10 mg/kg (Mus musculus [30]): 100%
Ki [31]: 0.392 µM
IC50 [32]: 8.82 µM
